Data reported in patent US20110144079A1, “ANTIMICROBIAL SYSTEM” (priority 2008, published 2011).

Key:
Format in all cases: cell-based
[1] = system: B. cereus; test: Biofilm assay (Calgary Biofilm Device), MBEC; conditions: B. cereus 24 h biofilm, 24 h challenge
Experimental: (§1) Biofilms of each test organism were grown in the Calgary Biofilm Device (commercially available as the MBEC Assay™ for Physiology & Genetics, Innovotech Inc., Edmonton, Alberta, Canada). The device, a micro-titre plated based assay, consists of two parts; a microtitre plate containing the inoculated test medium and a polystyrene lid with 96 identical pegs on which the microbial biofilm forms under gyrorotary incubation. The biofilm assay was conducted according to the MBEC™ assay protocol as supplied by the manufacturer, with slight modifications. Inocula of each test organism were prepared in MHB as described above and adjusted to provide a final inoculum density of ˜10^7 CFU ml^−1 (as confirmed by viable count). 150 μl of the inoculated media was transferred to each well of the 96-well microtitre plate and the assay plate lid, bearing 96 pegs was placed into the microtitre plate. The MBEC assay plates were placed in a gyrorotary incubator (37° C., 95% relative humidity) for 24 h to permit growth and comparison of 24 h biofilms of each test strain. Positive and negative growth controls were included in each plate (6 replicates). Initial and 24 h planktonic viable counts were measured, as were 24 h biofilm counts, expressed as CFU peg^−1, according to manufacturers instructions. After 24 h, the peg lid of the MBEC assay plate was gently rinsed three times. After rinsing, the peg lid of the MBEC assay was transferred to a ‘challenge’ plate. Serial dilutions of each imidazolium salt were prepared in 200 μl of MHB containing various concentrations of IL in each well. Positive growth control and sterility control were included in each assay plate. […] Biofilms were dislodged into recovery media by sonication for 5 minutes and the peg lid discarded. The recovery plate is incubated overnight and visually checked after 24 h for turbidity. In addition, optical density measurements for each plate were recorded at 550 nm. Clear wells were taken as evidence of biofilm eradication and the MBEC value was assigned as the lowest concentration at which no growth was observed after 24 h incubation. Plates were incubated for a further 24 h to confirm biofilm eradication concentrations.

[2] = system: S. epidermidis ATCC 35984; test: Biofilm assay (Calgary Biofilm Device), MBEC; conditions: S. epidermidis ATCC 35984 24 h biofilm, 24 h challenge
Experimental: as §1

[3] = system: P. aeruginosa PA01; test: Biofilm assay (Calgary Biofilm Device), MBEC; conditions: P. aeruginosa PA01 24 h biofilm, 24 h challenge
Experimental: as §1

[4] = system: C. tropicalis NCTC 7393; test: Biofilm assay (Calgary Biofilm Device), MBEC; conditions: C. tropicalis NCTC 7393 24 h biofilm, 24 h challenge
Experimental: as §1

[5] = system: E-MRSA 15; test: Biofilm assay (Calgary Biofilm Device), MBEC; conditions: E-MRSA 15 24 h biofilm, 24 h challenge
Experimental: as §1

[6] = system: P. mirabilis NCTC 12442; test: Biofilm assay (Calgary Biofilm Device), MBEC; conditions: P. mirabilis NCTC 12442 24 h biofilm, 24 h challenge
Experimental: as §1

[7] = system: E. coli NCTC 8196; test: Biofilm assay (Calgary Biofilm Device), MBEC; conditions: E. coli NCTC 8196 24 h biofilm, 24 h challenge
Experimental: as §1

[8] = system: K. aerogenes NCTC 7427; test: Biofilm assay (Calgary Biofilm Device), MBEC; conditions: K. aerogenes NCTC 7427 24 h biofilm, 24 h challenge
Experimental: as §1

[9] = system: S. aureus PIII; test: Biofilm assay (Calgary Biofilm Device), MBEC; conditions: S. aureus PIII 24 h biofilm, 24 h challenge
Experimental: as §1

[10] = system: S. aureus PIII; test: Broth microdilution MIC
Experimental: (§2) Broth microdilution tests were performed according to NCCLS guidelines. Serial two-fold dilutions of each imidazolium salt (from an original working solution which had been 0.22 μm sterile filtered) in Mueller-Hinton Broth (MHB) (100 μl) were prepared in 96-well micro-titre plates over the range 0.0000625-1% w/v. The inoculum to be tested was prepared by adjusting the turbidity of an actively overnight growing broth culture in MHB to an optical density at 550 nm equivalent to 1×10^8 CFU/ml. The suspension was further diluted to provide a final inoculum density of 2×10^5 CFU/ml in MHB as verified by total viable count. The inoculum to be tested (100 μl, 2×10^5 CFU ml^−1) was added to each well of the microdilution trays which were incubated aerobically for 24 h at 37° C. Positive and negative growth controls were included in every assay (6 replicates). After determining the MICs, minimum bactericidal concentrations (MBCs) were determined by spreading 20 μl of suspension from wells showing no growth onto MHA plates, which were then incubated for 24 h and examined for 99.9% killing.

[11] = system: S. epidermidis ATCC 12228; test: Broth microdilution MIC/MBC; conditions: for MBC: S. epidermidis ATCC 12228, 99.9% killing; for MIC: S. epidermidis ATCC 12228, 24 h at 37° C.
Experimental: as §2

[12] = system: B. cereus; test: Broth microdilution MIC/MBC; conditions: for MBC: 99.9% killing; for MIC: 24 h at 37° C.
Experimental: as §2

[13] = system: S. aureus ATCC 29213; test: Broth microdilution MIC/MBC; conditions: for MBC: S. aureus ATCC 29213, 99.9% killing; for MIC: S. aureus ATCC 29213, 24 h at 37° C.
Experimental: as §2

[14] = system: S. epidermidis ATCC 35984; test: Broth microdilution MIC/MBC; conditions: for MBC: S. epidermidis ATCC 35984, 99.9% killing; for MIC: S. epidermidis ATCC 35984, 24 h at 37° C.
Experimental: as §2

[15] = system: P. aeruginosa PA01; test: Broth microdilution MIC/MBC; conditions: for MBC: P. aeruginosa PA01, 99.9% killing; for MIC: P. aeruginosa PA01, 24 h at 37° C., read-out: MIC
Experimental: as §2

[16] = system: C. tropicalis NCTC 7393; test: Broth microdilution MIC/MBC; conditions: for MBC: C. tropicalis NCTC 7393, 99.9% killing; for MIC: C. tropicalis NCTC 7393, 24 h at 37° C.
Experimental: as §2

[17] = system: E-MRSA 15; test: Broth microdilution MIC/MBC; conditions: for MBC: E-MRSA 15, 99.9% killing; for MIC: E-MRSA 15, 24 h at 37° C.
Experimental: as §2

[18] = system: P. mirabilis NCTC 12442; test: Broth microdilution MIC/MBC; conditions: for MBC: P. mirabilis NCTC 12442, 99.9% killing; for MIC: P. mirabilis NCTC 12442, 24 h at 37° C.
Experimental: as §2

[19] = system: E. coli NCTC 8196; test: Broth microdilution MIC/MBC; conditions: for MBC: E. coli NCTC 8196, 99.9% killing; for MIC: E. coli NCTC 8196, 24 h at 37° C.
Experimental: as §2

[20] = system: K. aerogenes NCTC 7427; test: Broth microdilution MIC/MBC; conditions: for MBC: K. aerogenes NCTC 7427, 99.9% killing; for MIC: K. aerogenes NCTC 7427, 24 h at 37° C.
Experimental: as §2

Structure (SMILES) | MIC [10] | MIC [11] | MIC [12] | MIC [14] | MIC [15] | MIC [16] | MIC [17] | MIC [18] | MIC [19] | MIC [20] | MBEC [1] | MBEC [2] | MBEC [3] | MBEC [4] | MBEC [5] | MBEC [6] | MBEC [7] | MBEC [8] | MBEC [9] | MBC [11] | further results
CCCCCCCC[n+]1cccc2ccccc21.[Br-] [1-alkyl-3-quinolinium bromides 8] | 242 µM | 121.2 µM | 484.78 µM | 121.2 µM | 484.78 µM | 242 µM | 242 µM | 242 µM | 121.2 µM | 60 µM | 7826 µM | 3913 µM | 8315 µM | 7826 µM | 7826 µM | 7826 µM | 8315 µM | 9782 µM | 7826 µM | 242 µM | MBC [12]: 726 µM; MBC [13]: 484 µM; MIC [13]: 242 µM; MBC [14]: 242 µM; MBC [15]: 605 µM; MBC [16]: 363 µM; MBC [17]: 484 µM; MBC [18]: 363 µM; MBC [19]: 242 µM; MBC [20]: 242 µM
CCCCCCCCCCCCCCCCCC[n+]1cccc2ccccc21.[Br-] [1-alkyl-3-quinolinium bromides 18] | 209.76 µM | – | 419.52 µM | 104.88 µM | 419.52 µM | 104.88 µM | 209.76 µM | 104.88 µM | 104.88 µM | 104.88 µM | 3356.16 µM | 1678.08 µM | 6712.32 µM | 1678.08 µM | 1678.08 µM | 3356.16 µM | 1678.08 µM | 6712.32 µM | 3356.16 µM | – | –

Continued, in another order:

MIC [10] | MIC [11] | MIC [12] | MIC [14] | MIC [15] | MIC [16] | MIC [17] | MIC [18] | MIC [19] | MIC [20] | Structure (SMILES) | MBEC [1] | MBEC [2] | MBEC [3] | MBEC [4] | MBEC [5] | MBEC [6] | MBEC [7] | MBEC [8] | MBEC [9] | MBC [11] | further results
111.5 µM | 55.74 µM | 223 µM | 55.74 µM | 223 µM | 55.74 µM | 55.74 µM | 111.5 µM | 55.74 µM | 55.74 µM | CCCCCCCCCC[n+]1cccc2ccccc21.[Br-] [1-alkyl-3-quinolinium bromides 10] | 3584 µM | 896 µM | 1792 µM | 1792 µM | 1792 µM | 3584 µM | 3584 µM | 4568 µM | 1956 µM | 111.48 µM | MBC [12]: 278.7 µM; MBC [13]: 111.48 µM; MIC [13]: 111.5 µM; MBC [14]: 111.48 µM; MBC [15]: 446 µM; MBC [16]: 111.48 µM; MBC [17]: 111.48 µM; MBC [18]: 167.22 µM; MBC [19]: 167.22 µM; MBC [20]: 167.22 µM
25.81 µM | 12.9 µM | 51.63 µM | 12.9 µM | 51.64 µM | 12.9 µM | 25.8 µM | 25.81 µM | 25.81 µM | 12.9 µM | CCCCCCCCCCCC[n+]1cccc2ccccc21.[Br-] [1-alkyl-3-quinolinium bromides 12] | 774.25 µM | 413.97 µM | 413.97 µM | 413.87 µM | 827.94 µM | 1655.88 µM | 827.94 µM | 981.25 µM | 619.5 µM | 25.8 µM | MBC [12]: 77.4 µM; MBC [13]: 51.6 µM; MIC [13]: 25.81 µM; MBC [14]: 25.8 µM; MBC [15]: 90.33 µM; MBC [16]: 25.8 µM; MBC [17]: 25.8 µM; MBC [18]: 51.6 µM; MBC [19]: 38.7 µM; MBC [20]: 38.7 µM
5.8 µM | 3 µM | 23.95 µM | 5.8 µM | 23.95 µM | 3 µM | 5.8 µM | 5.8 µM | 11.6 µM | 5.8 µM | CCCCCCCCCCCCCC[n+]1cccc2ccccc21.[Br-] [1-alkyl-3-quinolinium bromides 14] | 273.32 µM | 68.33 µM | 136.66 µM | 68.33 µM | 136.66 µM | 546.64 µM | 136.66 µM | 136.66 µM | 91.11 µM | 5.8 µM | MBC [12]: 29.75 µM; MBC [13]: 5.8 µM; MIC [13]: 5.8 µM; MBC [14]: 5.8 µM; MBC [15]: 23.95 µM; MBC [16]: 3 µM; MBC [17]: 5.8 µM; MBC [18]: 5.8 µM; MBC [19]: 11.6 µM; MBC [20]: 11.6 µM
